Entries after “also recorded” stand apart in the source; their conditions may differ. No end group written: not given here.
Tests used:
primary adipocytes = assay: Lipolytic glycerol release from primary adipocytes; type: cell-based, mice
Experimental: Mice were fasted for 12 hr prior to blood draw. Triglycerides (TG) and non-esterified fatty acids (NEFA) were assayed using kits from Wako Diagnostics (Richmond, Va.). Glycerol was assayed using a kit from Sigma (St Louis, Mo.). Media from the explant cultures and mouse serum were analysed for glycerol and NEFA as a measure of lipolysis. ELISA kits were used to determine plasma levels of leptin, adiponectin (Millipore, Billerica, Mass.) and CST (Bachem, Torrance, Calif.). For CST assay, plasma samples and reference standards were passed through mini C18 columns and the flow-through fractions were assayed. The same kits were used for measurements in culture media.
Primary adipocytes were isolated from epididymal fat pads essentially as described (43). Adipose tissues from WT and Chga-KO mice were minced in Krebs-Ringer bicarbonate-Hepes (KRBH) buffer, pH 7.4, containing 10 mM bicarbonate, 30 mM Hepes, 200 nM adenosine, 2.5 mM glucose and 1% fatty-acid-free BSA, and digested for 30-40 min with Type I collagenase (10 mg/g tissue; Invitrogen, Carlsbad, Calif.) with gentle swirling in a 37° C. incubator. The digestion mixture was then filtered through a nylon strainer and centrifuged at 400×g for 1 min. The oily layer (released from broken cells) above floating fat cells was skimmed off, and fat cells were recovered from the top and washed three times with warm KRBH.

HFD-fed WT mice = assay: CST treatment of HFD-fed WT mice; type: in vivo
Text: FIG. 12. Metabolic phenotypes in HFD-fed CST-KO mice. (A) CST-KO mice eat more 60% HFD than WT. (B) CST-KO mice gained more weight than WT. (C) Heightened glucose resistance at baseline in CST-KO mice compared to WT mice. […] Figures in parentheses indicate number of animals.

[1] = system: adipose tissue explants from Ob/Ob mice; assay: Lipolysis and fatty acid oxidation in adipose explants of Ob/Ob mice; type: cell-based
Experimental: FIG. 8. Lipolysis and fatty acid oxidation in the adipose tissue explants of DIO and Ob/Ob mice after treatment with saline or CST for 16 days. Explants were incubated with saline or leptin (1 μM) for 3 hr and the concentrations of glycerol (A&C) and NEFA (B&D) released into the media from DIO (A&B) and Ob/Ob (C&D) explants were determined as a measure of lipolysis. Homogenates of the explants from DIO (E) and Ob/Ob […] were used to determine their capacity for oxidation of U-^14C-palmitate in response to the treatment with saline, CST, leptin and CST+leptin. The ^14CO2 released was captured and counted as the measure of fatty acid oxidation.
(§1) Adipose tissue explants were prepared as described (42). Epididymal fat pads from 12 hr fasted WT, Chga-KO, DIO and Ob/Ob mice with or without CST treatment were collected in Kreb-Ringer-phosphate (KRP) buffer containing 10 mM Hepes and 0.5% BSA. Tissues were minced to 1-2 mm size and treated with 100 nM CST, 1 μM leptin, or saline for 30 min (for signaling analysis) or 3 hr (for lipolysis and β-oxidation assays). Explants were also treated acutely with CST, leptin, a combination, or saline. At the end, incubation media were saved for analysis of glycerol and fatty acid release. Explants were washed prior to homogenization for immunoblotting and analysis of fatty acid oxidation.
Oxidation of radiolabeled palmitate in the homogenates of adipose tissue explants as described previously (45). For oxidation studies of cultured cells, HepG2 (hepatocytes) and 3T3-L1 preadipocytes were obtained from ATCC and cultured following supplier's protocol. Confluent 3T3-L1 cultures were differentiated into adipocytes by treating with a cocktail of dexamethasone (100 nM), IBMX ([…]) and insulin (100 nM) for 10 days. Media were then switched to serum-free DMEM with 1% BSA. Hepatocytes were assayed for lipogenesis and fat oxidation in response to CST treatment. Serum-free cultures were treated with CST (100 nM) for 24 hr followed by a 2 hr incubation with U^14C-palmitate (0.5 μCi/ml). Fatty acid oxidation in cells was determined by modifying a published method (46). Specifically, the culture media in 24-well plates were acidified with 10% HClO4 after incubation with the labeled fatty acid and immediately covered with a thick filter paper sheet (cut to size) soaked in 2 N NaOH and placed underneath the plastic lid. The whole plate was sealed with parafilm. After further incubation for 2 hr, the filter paper sheet was marked as circles around the rim of the wells and then the circles were excised. The filter discs were counted to determine the amount of ^14CO2 absorbed in the papers. Cells in the culture wells were lysed in 1 N NaOH and protein content was assayed using Folin's reagent (BioRad, Hercules, Calif.).

[2] = system: STAT3 and AMPK phosphorylation; assay: Stat3 and AMPK signaling in adipose explants from Ob/Ob mice; type: cell-based; details: CST in vivo, leptin 1 μM ex vivo 30 min
Experimental: FIG. 9. Stat3 and AMPK signaling in the adipose tissue explants from DIO and Ob/Ob mice treated with saline, CST (in vivo) and leptin (ex vivo). Explants from DIO mice (A&B) and Ob/Ob mice (C&D) were incubated with saline or leptin (1 μM) for 30 min, homogenized and immunoblotted for phospho- and total Stat3 (A&C) as well as phospho- and total AMPK signals (B&D). Results are presented as the ratio of signal strength of phospho-over total.
as §1
Adipose tissue explants after treatments ex vivo and tissues from mice treated in vivo were homogenized in a buffer containing phosphatase and protease inhibitors (20 mM Tris/HCl (pH 7.5), 250 mM sucrose, 2 mM EDTA, 2 mM EGTA, 2 mM Na3VO4, 10 mM NaF, 2 mM Na4P2O7, 1 mM phenylmethylsulfonyl fluoride, 20 μg/ml leupeptin, 10 μg/ml aprotinin, and 1 μM LR-microcystin) as described (38,44). Homogenates were subjected to SDS-PAGE and immunoblotted. Primary antibodies for AMPK and Stat3 were from Cell Signaling Technology (Beverly, Mass.). The chemiluminescence kit was from Pierce (Rockford, Ill.).

HFD-fed Chga-KO mice = assay: Peptide supplementation to HFD-fed Chga-KO mice (insulin sensitivity); type: in vivo; details: HFD (60%)-fed Chga-KO mice

In the case of SSMKLSFRARAYGFRGPGPQL [CST], the “effect on the lipolytic effect of isoproterenol” value (primary adipocytes; adipocytes, with isoproterenol 10 μM) is reported as “potentiated”, the “glycerol release (lipolysis)” value (primary adipocytes; primary adipocytes, substance alone) is reported as “stimulated glycerol release” and the “basal plasma insulin level” value (HFD-fed WT mice) is reported as “decreased; also recorded: reduced hyperinsulinemia”. The insulin sensitivity (HFD-fed WT mice) was “improvement in insulin sensitivity; also recorded: sensitive to insulin”, the palmitate oxidation [1] was “not CST alone” and the “lipolysis (glycerol and NEFA release)” value ([1]; CST in vivo 16 days, leptin 1 μM ex vivo 3 hr) was “did not influence lipolysis”. For the same sequence, the STAT3 phosphorylation [2] was “CST stimulation of STAT3 phosphorylation” and the “insulin sensitivity (GTT)” value (HFD-fed Chga-KO mice) was “made HFD-fed Chga-KO mice sensitive to insulin”.
